From patent US20250109134A1 (Ascentage Pharma (Suzhou) Co., Ltd., priority 2022, published 2025) come the findings set out here.

Each structure is given as a SMILES string.

Series [1] is described as follows: Stability study, content and related substances (TRS, total impurity content) by HPLC. It counts as physicochemical. The protocol:
In the present invention, the HPLC (high performance liquid chromatography) test parameters are set as follows:
Then, the sample flasks were opened to air (sealed with aluminum foil punctured with small holes) and placed in constant temperature and humidity cabinets at high temperature (60° C.), at room temperature and high humidity ([…]), at RT/75% RH, and at 40° C./75% RH for 30 days, respectively, […]

Series [2] is described as follows: Polymorph screening (suspension, anti-solvent, gas-liquid diffusion, slow volatilization methods), resulting form by XRPD. Type of series: physicochemical. The protocol:
The sample was quickly centrifuged (6000 rpm, 5 min) to remove a supernatant. The resulting precipitate was subjected to vacuum drying (40° C., −0.1 MPa) for 20 h, followed by physical characterization.
The resulting precipitate was subjected to vacuum drying at 40° C. for 20 h, followed by physical characterization.
No clear solution was obtained, and the sample was still undissolved after 1 mL of solvent was added. Then, 500 μL of poor solvent (acetone, ACN, MeOH, EtOAc, THE, or […]) was added, and 40 mg of the sample was added to perform an experiment by a suspension method. All suspension samples were stirred at 50° C. for 2 days and quickly centrifuged (6000 rpm, 5 min) to remove a supernatant. The resulting solid was subjected to vacuum drying at 40° C. for 20 h, followed by physical characterization.
The compound of formula I was subjected to polymorph screening with DCM as a good solvent and with MeOH, EtOH, THE, or EA as an anti-solvent, and was dissolved in both DCM and MeOH systems. The suspension sample was stirred for 2 days and quickly centrifuged to remove a supernatant. The resulting precipitate was subjected to vacuum drying at 25° C. for 20 h, followed by physical characterization.
The resulting precipitate was subjected to vacuum drying at room temperature for 20 h, followed by physical characterization.
The resulting precipitate was subjected to vacuum drying for 20 h.
Sonication was performed for 1 min to obtain a clear solution, which was filtered through a 0.22 μm filter membrane and aliquoted into seven 8 mL glass flasks. An anti-solvent was added until precipitation occurred. The sample was stirred at room temperature for 1 day and quickly centrifuged. The resulting solid precipitate was subjected to vacuum drying.
Then, an anti-solvent was added until precipitation occurred, and the mixture was stirred at room temperature overnight and quickly centrifuged (6000 rpm, 6 min) to remove a supernatant. The resulting precipitate was subjected to vacuum drying for 20 h.
Then, the solution was added to a 20 mL glass flask containing 2 mL of an anti-solvent (shown in the following table), and the flask was tightly capped at room temperature and placed in a fume hood for diffusion. When precipitation occurred, the flask was taken out, and the resulting precipitate was subjected to vacuum drying for 20 h.
The flask placed in a fume hood at room temperature for diffusion. When precipitation occurred, the flask was taken out, and the resulting precipitate was subjected to vacuum drying for 20 h.
The mixture was stirred at 50° C. or room temperature for 6 days and quickly centrifuged (6000 rpm, […]) to remove a supernatant. The resulting precipitate was subjected to vacuum drying for 20 h.

Where [3] appears, read: solvent 1,4-Dixoane, suspension, 6 days.

As to `CC(C)N1Cc2cc(C(F)(F)F)ncc2-c2cnc(NCc3c(F)ccc4c3CCO4)n3cnc(c23)C1=O.Cl` [Crystalline form A of hydrochloride salt], the “TRS(%)” value in series [1] (40° C./75RH %-5 d, open storage) stood at 0.30%; in series [1] (40° C./75RH %- 10 d, open storage) it was 0.28%; in series [1] (40° C./75RH %- 30 d, open storage) it was 0.28%; in series [1] (60° C.-5 d, open storage) it was 0.28%; in series [1] (60° C.-10 d, open storage) it was 0.34%; in series [1] (60° C.-30 d, open storage), 0.27%. For the same molecule, the “TRS(%)” value in series [1] (Initial, TRS = total impurity content, HPLC) is given as 0.31%; in series [1] (RT/75% RH 7 d, open storage) it was 0.26%; in series [1] (RT/75% RH 10 d, open storage), 0.26%; in series [1] (RT/75% RH 30 d, open storage), 0.37%; in series [1] (RT/90RH %-5 d, open storage) it was 0.28%; in series [1] (RT/90RH %-10 d, open storage), 0.26%. Further, the “TRS(%)” value in series [1] (RT/90RH %-30 d, open storage) turned out to be 0.27%.

Take `CC(C)N1Cc2cc(C(F)(F)F)ncc2-c2cnc(NCc3c(F)ccc4c3CCO4)n3cnc(c23)C1=O.CS(=O)(=O)O`: the Crystalline form results is listed as “No precipitation” in series [2] (anti-solvent method, good solvent DCM/MeOH = 2-1 (20 mg/mL), anti-solvent Methyl acetate, room temperature overnight); “Crystalline form A” in series [2] (anti-solvent method, good solvent DMF (50 mg/mL), anti-solvent Acetonitrile, room temperature overnight); “No precipitation” in series [2] (anti-solvent method, good solvent DMF (50 mg/mL), anti-solvent Dimethyl tetrahydrofuran, room temperature overnight); “Dissociation into a free base” in series [2] (anti-solvent method, good solvent DMF (50 mg/mL), anti-solvent Methyl acetate, room temperature overnight); “No precipitation” in series [2] (anti-solvent method, good solvent DMF (50 mg/mL), anti-solvent n-heptane, room temperature overnight); “No precipitation” in series [2] (anti-solvent method, good solvent MeOH (10 mg/mL), anti-solvent Acetonitrile, room temperature overnight). Also, the Crystalline form results in series [2] (anti-solvent method, good solvent MeOH (10 mg/mL), anti-solvent Dimethyl tetrahydrofuran, room temperature overnight) was “No precipitation”; in series [2] (anti-solvent method, good solvent MeOH (10 mg/mL), anti-solvent Methyl acetate, room temperature overnight) it was “No precipitation”; in series [2] (anti-solvent method, good solvent MeOH (10 mg/mL), anti-solvent n-heptane, room temperature overnight) it was “No precipitation”; in series [2] (anti-solvent method, good solvent NMP (50 mg/mL), anti-solvent Acetonitrile, room temperature overnight) it was “Presumably an NMP solvate”; in series [2] (anti-solvent method, good solvent NMP (50 mg/mL), anti-solvent Dimethyl tetrahydrofuran, room temperature overnight) it was “Presumably an NMP solvate”; in series [2] (anti-solvent method, good solvent NMP (50 mg/mL), anti-solvent Ethyl acetate, room temperature overnight) it was “Dissociation into a free base”. Also, the Crystalline form results in series [2] (anti-solvent method, good solvent NMP (50 mg/mL), anti-solvent Methyl acetate, room temperature overnight) is on record as “Presumably an NMP solvate”; in series [2] (anti-solvent method, good solvent NMP (50 mg/mL), anti-solvent Tert-butyl methyl ether, room temperature overnight), “Presumably an NMP solvate”; in series [2] (anti-solvent method, good solvent NMP (50 mg/mL), anti-solvent n-heptane, room temperature overnight), “Presumably an NMP solvate”; in series [2] (gas-liquid diffusion method, good solvent DMF (50 mg/mL), anti-solvent 2-MeTHF, room temperature), “No precipitation”; in series [2] (gas-liquid diffusion method, good solvent DMF (50 mg/mL), anti-solvent ACN, room temperature), “No precipitation”; in series [2] (gas-liquid diffusion method, good solvent DMF (50 mg/mL), anti-solvent EtOAc, room temperature), “No precipitation”. The Crystalline form results is on record as “No precipitation” in series [2] (gas-liquid diffusion method, good solvent DMF (50 mg/mL), anti-solvent FA, room temperature); “No precipitation” in series [2] (gas-liquid diffusion method, good solvent DMF (50 mg/mL), anti-solvent Heptane, room temperature); “No precipitation” in series [2] (gas-liquid diffusion method, good solvent DMF (50 mg/mL), anti-solvent MTBE, room temperature); “No precipitation” in series [2] (gas-liquid diffusion method, good solvent MeOH (10 mg/mL), anti-solvent 2-MeTHF, room temperature); “No precipitation” in series [2] (gas-liquid diffusion method, good solvent MeOH (10 mg/mL), anti-solvent ACN, room temperature); “No precipitation” in series [2] (gas-liquid diffusion method, good solvent MeOH (10 mg/mL), anti-solvent FA, room temperature). Moreover, the Crystalline form results is listed as “No precipitation” in series [2] (gas-liquid diffusion method, good solvent MeOH (10 mg/mL), anti-solvent Heptane, room temperature); “Possibly an NMP solvate” in series [2] (gas-liquid diffusion method, good solvent NMP (50 mg/mL), anti-solvent 2-MeTHF, room temperature); “Possibly an NMP solvate” in series [2] (gas-liquid diffusion method, good solvent NMP (50 mg/mL), anti-solvent ACN, room temperature); “Dissociation into a free base” in series [2] (gas-liquid diffusion method, good solvent NMP (50 mg/mL), anti-solvent EtOAc, room temperature); “Possibly an NMP solvate” in series [2] (gas-liquid diffusion method, good solvent NMP (50 mg/mL), anti-solvent FA, room temperature); “Possibly an NMP solvate” in series [2] (gas-liquid diffusion method, good solvent NMP (50 mg/mL), anti-solvent Heptane, room temperature). For the same molecule, the Crystalline form results in series [2] (gas-liquid diffusion method, good solvent NMP (50 mg/mL), anti-solvent MTBE, room temperature) is given as “Possibly an NMP solvate”; in series [2] (slow volatilization method, solvent DCM/MeOH = 2-1, room temperature), “Crystalline form B”; in series [2] (slow volatilization method, solvent EtOH/EA = 2-1, room temperature) it was “Crystalline form A”; in series [2] (slow volatilization method, solvent EtOH, room temperature), “Crystalline form B”; in series [2] (slow volatilization method, solvent MeOH/FA = 2-1, room temperature), “Crystalline form B”; in series [2] (slow volatilization method, solvent MeOH, room temperature) it was “Crystalline form A”. The Crystalline form results in series [2] (solvent ACN—H2O 1-1, initial crystalline form A of methanesulfonate salt) was “Crystalline form A”; in series [2] (solvent H2O, initial crystalline form A of methanesulfonate salt), “Crystalline form A”; in series [2] (solvent MeOH—H2O 1-1, initial crystalline form A of methanesulfonate salt) it was “Crystalline form A”.

As to `CC(C)N1Cc2cc(C(F)(F)F)ncc2-c2cnc(NCc3c(F)ccc4c3CCO4)n3cnc(c23)C1=O.Cl`, the Crystalline form results in series [2] (solvent 1,4-dioxane, suspension, 40° C., 3 days, from crystalline form A of hydrochloride salt) is listed as “Crystalline form A of hydrochloride salt”; in series [2] (solvent 88% acetone, suspension, 40° C., 3 days, from crystalline form A of hydrochloride salt) it was “Crystalline form B”; in series [2] (solvent ACN, suspension, 40° C., 3 days, from crystalline form A of hydrochloride salt) it was “Crystalline form A of hydrochloride salt”; in series [2] (solvent Acetone, suspension, 40° C., 3 days, from crystalline form A of hydrochloride salt) it was “Crystalline form A of hydrochloride salt”; in series [2] (solvent EtOAc, suspension, 40° C., 3 days, from crystalline form A of hydrochloride salt), “Crystalline form A of hydrochloride salt”; in series [2] (solvent EtOH, suspension, 40° C., 3 days, from crystalline form A of hydrochloride salt) it was “Ethanol solvate of hydrochloride salt”. For the same molecule, the Crystalline form results was “Crystalline form A” in series [2] (solvent EtOH—H2O = 3-1, suspension, 40° C., 3 days, from crystalline form A of hydrochloride salt); “Crystalline form A of hydrochloride salt” in series [2] (solvent H2O, suspension, 40° C., 3 days, from crystalline form A of hydrochloride salt); “Isopropanol solvate of hydrochloride salt” in series [2] (solvent IPA, suspension, 40° C., 3 days, from crystalline form A of hydrochloride salt); “Partial dissociation into crystalline form A” in series [2] (solvent MeOH, suspension, 40° C., 3 days, from crystalline form A of hydrochloride salt); “Crystalline form A” in series [2] (solvent MeOH—H2O = 3-1, suspension, 40° C., 3 days, from crystalline form A of hydrochloride salt); “Crystalline form A of hydrochloride salt” in series [2] (solvent Toluene, suspension, 40° C., 3 days, from crystalline form A of hydrochloride salt). For the same molecule, the Crystalline form results in series [2] (solvent n-butanol, suspension, 40° C., 3 days, from crystalline form A of hydrochloride salt) is given as “Crystalline form A of hydrochloride salt”.

In the case of `CC(C)N1Cc2cc(C(F)(F)F)ncc2-c2cnc(NCc3c(F)ccc4c3CCO4)n3cnc(c23)C1=O`, in series [2] (setting [3]), the “Crystalline form results 50° C.” value was 1,4-dioxane solvate and the “Crystalline form results Room temperature” value was 1,4-dioxane solvate.
